Reference: patent US4439434A, “Cephalosporin derivative and pharmaceutical composition containing the derivative” (Kureha Kagaku Kogyo Kabushiki Kaisha, priority 1981, dated 1984)
Values after ≈ are worked out from the molar mass of the structure shown.

Legend:
Bacteroides = experiment: Effect on the intestinal bacterial colonies: Bacteroides in feces; assay type: in vivo; conditions: mice, oral 500 mg/kg/day for two consecutive days, feces one day after administration
Protocol: (§1) Each of the cephalosporin derivatives of the invention prepared in Examples 1 to 10 was orally administered to mice (one group consisting of five female ICR mice of 6-week-old) for two consecutive days at a dose of 500 mg/kg/day.
(§2) Before and one day after the administration, feces of each mouse were collected and diluted with an anaerobic diluent (phosphoric buffer solution) of 100 times volume and the diluted feces were ground. 0.1 ml of the diluted and ground feces was smeared on each culture medium shown in Table 1 and cultured aerobically or anaerobically (according to the anaerobic glove box method) under each condition shown in Table 1 and the number of each bacterium shown in Table 1 was counted.
Bacteroides NBGT agar anaerobic, 37° C.,

[1] = tested on: Staphylococcus aureus IAM 1011; experiment: Activation by rat liver homogenate (S-9 mix), proliferation-inhibiting circle, penicillin cup method; assay type: cell-based; conditions: incubated with rat liver S-9 mix, 37° C. 20 min; circle diameter relative to the starting compound
Protocol: As an activating enzyme of metabolism, a rat liver homogenate (S-9, manufactured by Oriental Yeast Company, Japan) was used in the following composition per 1 ml (hereinafter referred to as S-9 mix). 0.1 ml of the solution of each of the cephalosporin derivatives of the invention prepared in Examples 1 to 10 at a concentration of 100 μg/ml was mixed with 0.9 ml of S-9 mix or 0.9 ml of 0.1 M phosphoric buffer solution (as a control) and the obtained mixture was incubated at 37° C. for 20 min. with shaking. Staphylococcus aureus IAM 1011 was inoculated into a Mueller-Hinton's culture medium and cultured at 37° C. for 18 hours. The culture medium was adjusted to a cell concentration of 1×10^8 per 1 ml and mixed with 50 times by volume of Mueller-Hinton's agar culture medium to obtain an agar plate. A penicillin cup of 8 mm in diameter was placed on the agar plate prepared above, and into the cup 0.1 ml of the mixture containing the cephalosporin derivative prepared above was introduced and allowed to stand at 4° C. for 2 hours, and then cultured at 37° C. for 18 hours to measure the diameter of a circle in which the proliferation of bacteria was inhibited (proliferation-inhibiting circle). In Table 4, the proliferation-inhibiting index is shown in the ratio (%) of the diameter of the proliferation-inhibiting circle obtained by using each of the cephalosporin derivatives of the invention to that obtained by using each of the starting compound in preparing each of the cephalosporin derivatives of the invention.

Lactobacillus bifidus = experiment: Effect on the intestinal bacterial colonies: Lactobacillus bifidus in feces; assay type: in vivo; conditions: mice, oral 500 mg/kg/day for two consecutive days, feces one day after administration
Protocol: as §1, §2
BS agar anaerobic, 37° C.,

[2] = tested on: Escherichia coli IFO 12734; experiment: Antibacterial activity (MIC, agar plate) against E. coli; assay type: cell-based; conditions: Escherichia coli IFO 12734, Mueller-Hinton agar, 37° C., 18 to 24 hours; unit assumed
Protocol: (§3) Antibacterial activity of each of the cephalosporin derivatives of the invention prepared in Examples 1 to 10 was examined against the following two bacteria according to the standard method of Japan Society of Chemitherapy: Escherichia coli IFO 12734 and Staphylococcus aureus IAM 1011.
(§4) Each bacterial strain was inoculated into the Mueller-Hinton's culture medium and cultured at 37° C. for 18 to 48 hours. The cultured medium was diluted so as to contain 1×10^6 cells of the bacteria per one ml, and the obtained medium was used as the bacterial specimen.
(§5) Agar plates were prepared by adding one part by weight of each solution of the cephalosporin derivative of the invention at a predetermined concentration to nine parts by weight of Mueller-Hinton's culture medium.
(§6) A loopful amount of the bacterial specimen prepared above was smeared to make a streak of about 2 cm on each agar plate prepared above and cultured at 37° C. for 18 to 24 hours.
(§7) The minimum concentration for completely inhibiting proliferation of the bacteria (referred to as MIC) was determined.

Streptococcus spp. = experiment: Effect on the intestinal bacterial colonies: Streptococcus spp. in feces; assay type: in vivo; conditions: mice, oral 500 mg/kg/day for two consecutive days, feces one day after administration
Protocol: as §1, §2
TATAC agar aerobic, 37° C.,

[3] = tested on: Staphylococcus aureus IAM 1011; experiment: Antibacterial activity (MIC, agar plate) against Staph. aureus; assay type: cell-based; conditions: Staphylococcus aureus IAM 1011, Mueller-Hinton agar, 37° C., 18 to 24 hours; unit assumed
Protocol: as §3, §4, §5, §6, §7

Pseudomonas aeruginosa = experiment: Effect on the intestinal bacterial colonies: Pseudomonas aeruginosa in feces; assay type: in vivo; conditions: mice, oral 500 mg/kg/day for two consecutive days, feces one day after administration
Protocol: as §1, §2
NAC agar aerobic, 37° C.,

Escherichia coli = experiment: Effect on the intestinal bacterial colonies: Escherichia coli in feces; assay type: in vivo; conditions: mice; for Logarithmic value of the number of bacterial cells per one g of feces, E. coli: oral 500 mg/kg/day for two consecutive days, feces one day after administration
Protocol: as §1, §2
DHL agar aerobic, 37° C.,

[4] = tested on: Lactobacillus acidophilus; experiment: Effect on the intestinal bacterial colonies: Lactobacillus acidophilus in feces; assay type: in vivo; conditions: mice; for Logarithmic value of the number of bacterial cells per one g of feces, L. acidophilus: oral 500 mg/kg/day for two consecutive days, feces one day after administration
Protocol: as §1, §2
Lactobacillus acidophilus
LBS agar anaerobic, 37° C.,

[5] = oral 500 mg/kg/day for two days, feces

Structure (SMILES)	Logarithmic value of the number of bacterial cells per one g of feces, Bacteroides (Bacteroides)	Proliferation-inhibiting index (%) After adding S-9 mix [1]	Logarithmic value of the number of bacterial cells per one g of feces, L. bifidus (Lactobacillus bifidus)	MIC E. coli [2]	Logarithmic value of the number of bacterial cells per one g of feces, Strept. spp. (Streptococcus spp.)	MIC Staph. aureus [3]	Logarithmic value of the number of bacterial cells per one g of feces, Ps. aeruginosa (Pseudomonas aeruginosa)	Logarithmic value of the number of bacterial cells per one g of feces, E. coli (Escherichia coli)	Logarithmic value of the number of bacterial cells per one g of feces, L. acidophilus [4]	change in the number of Escherichia coli as compared to that before administration (Escherichia coli; [5])	change in the number of Lactobacillus acidophilus [4, 5]
COC(=O)Cc1ccc(NC(=O)C2=C(COC(C)=O)CSC3C(NC(=O)Cc4cccs4)C(=O)N23)cc1 (centres unmarked) [Example 6, N-(4-carbomethoxymethylphenyl)-7-(thienyl-2-acetamido)cephalosporanic acid amide]	8.8	+++ (66-100)	8.3	≥ 100 µg/mL	6.5	≥ 12.5 µg/mL	< 3.0	6.8	8.9	–	–
CC(=O)OCC1=C(C(=O)Nc2ccc(CC(=O)O)cc2)N2C(=O)C(NC(=O)Cc3cccs3)C2SC1 (centres unmarked) [Example 5, N-(4-carboxymethylphenyl)-7-(thienyl-2-acetamido)cephalosporanic acid amide]	8.2	+++ (66-100)	8.4	≥ 100 µg/mL	6.8	1.56 µg/mL (≈ 2.95 µM)	< 3.0	6.5	9.1	–	–
CC(=O)OCC1=C(C(=O)Nc2ccc(O)cc2)N2C(=O)C(NC(=O)Cc3cccs3)C2SC1 (centres unmarked) [Example 1, N-(4-hydroxyphenyl)-7-(thienyl-2-acetamido)cephalosporanic acid amide]	8.7	+++ (66-100)	8.2	≥ 100 µg/mL	6.3	≥ 12.5 µg/mL	< 3.0	6.5	8.9	–	–
CC(=O)OCC1=C(C(=O)O)N2C(=O)[C@@H](NC(=O)Cc3cccs3)[C@H]2SC1 [Cephalotin, cephalotin, reference compound]	7.2	–	9.2	–	9.0	–	< 3.0	9.9	4.1	increased	decreased
COC(=O)CNC(=O)c1ccc(NC(=O)C2=C(COC(C)=O)CSC3C(NC(=O)Cc4cccs4)C(=O)N23)cc1 (centres unmarked) [Example 9, N-(4-carbomethoxymethylcarbamoylphenyl)-7-(thienyl-2-acetamido)cephalosporanic acid amide]	8.1	+++ (66-100)	8.6	≥ 100 µg/mL	7.1	≥ 12.5 µg/mL	< 3.0	6.5	9.3	–	–
CC(=O)OCC1=C(C(=O)Nc2ccc(C(=O)NCC(=O)O)cc2)N2C(=O)C(NC(=O)Cc3cccs3)C2SC1 (centres unmarked) [Example 8, N-(4-carboxymethylcarbamoylphenyl)-7-(thienyl-2-acetamido)cephalosporanic acid amide]	8.1	++ (33-66)	8.5	≥ 100 µg/mL	6.8	12.5 µg/mL (≈ 21.8 µM)	< 3.0	6.4	9.1	–	–
COC(=O)c1ccc(NC(=O)C2=C(COC(C)=O)CSC3C(NC(=O)Cc4cccs4)C(=O)N23)cc1 (centres unmarked) [Example 2, N-(4-carbomethoxyphenyl)-7-(thienyl-2-acetamido)cephalosporanic acid amide]	8.1	++ (33-66)	8.6	≥ 25 µg/mL	6.7	0.2 µg/mL (≈ 0.378 µM)	< 3.0	6.4	9.1	–	–
CCOC(=O)c1ccc(NC(=O)C2=C(COC(C)=O)CSC3C(NC(=O)Cc4cccs4)C(=O)N23)cc1 (centres unmarked) [Example 3, N-(4-carboethoxyphenyl)-7-(thienyl-2-acetamido)cephalosporanic acid amide]	8.1	++ (33-66)	8.3	≥ 100 µg/mL	6.5	≥ 12.5 µg/mL	< 3.0	6.5	9.0	–	–
COC(=O)c1ccccc1NC(=O)C1=C(COC(C)=O)CSC2C(NC(=O)Cc3cccs3)C(=O)N12 (centres unmarked) [Example 10, N-(2-carbomethoxyphenyl)-7-(thienyl-2-acetamido)cephalosporanic acid amide]	8.0	+ (1-33)	8.2	≥ 100 µg/mL	6.4	≥ 12.5 µg/mL	< 3.0	6.5	9.0	–	–
CCCCOC(=O)c1ccc(NC(=O)C2=C(COC(C)=O)CSC3C(NC(=O)Cc4cccs4)C(=O)N23)cc1 (centres unmarked) [Example 4, N-(4-carbo-n-butoxyphenyl)-7-(thienyl-2-acetamido)cephalosporanic acid amide]	8.1	++ (33-66)	8.5	≥ 100 µg/mL	6.7	≥ 12.5 µg/mL	< 3.0	6.4	9.1	–	–
